From US20250230147A1, “LACTAMS AS CBL-B INHIBITORS” (Genentech, Inc., priority 2021, published 2025)
pIC50: −log10 of the molar value. Where a name gives a salt, the structure may show the parent alone. Read-outs that look alike come from different tables or passages of the source.

Assays:
[1] = molecular target: Cbl-b (Homo sapiens (Human), UniProt Q13191); assay: Cbl-b LCK Ub TR-FRET assay (Cbl-b Lck HTRF); type: biochemical
In short: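 Biotin-Cbl-b preincubated with compound (10-point 3-fold series) 60 min, then His-LCK with 1 mM ATP (2× mixture) added for 90 min at room temperature. Ubiquitination detected by TR-FRET using HA-ubiquitin/UBE2D2 adduct, anti-HA-D2 and streptavidin-Eu; IC50 normalised to no-LCK and DMSO controls.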

[2] = molecular target: c-Cbl (Homo sapiens (Human), UniProt P22681); assay: C-Cbl LCK Ub TR-FRET assay (c-cbl Lck HTRF); type: biochemical; details: for (fold-selectivity): C-cbl Lck HTRF IC50 relative to Cbl-b Lck HTRF IC50
Sequence of c-Cbl (P22681 47-435): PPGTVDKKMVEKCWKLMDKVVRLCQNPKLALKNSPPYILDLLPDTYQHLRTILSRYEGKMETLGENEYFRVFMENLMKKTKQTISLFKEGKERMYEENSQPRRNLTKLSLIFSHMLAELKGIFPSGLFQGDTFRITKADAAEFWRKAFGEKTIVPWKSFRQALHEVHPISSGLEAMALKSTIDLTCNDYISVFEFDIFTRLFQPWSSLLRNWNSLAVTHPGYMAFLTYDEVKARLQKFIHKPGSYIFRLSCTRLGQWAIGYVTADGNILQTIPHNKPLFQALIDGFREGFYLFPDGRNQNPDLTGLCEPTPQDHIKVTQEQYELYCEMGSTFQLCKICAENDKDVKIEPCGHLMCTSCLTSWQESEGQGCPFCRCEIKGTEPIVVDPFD
In short: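 After the ubiquitination reaction, detection mixture was added and plates incubated 20 min at room temperature before reading. IC50 values were calculated with wells lacking LCK as the low control and DMSO as the high control.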

Sequence of Cbl-b (Q13191 40-426): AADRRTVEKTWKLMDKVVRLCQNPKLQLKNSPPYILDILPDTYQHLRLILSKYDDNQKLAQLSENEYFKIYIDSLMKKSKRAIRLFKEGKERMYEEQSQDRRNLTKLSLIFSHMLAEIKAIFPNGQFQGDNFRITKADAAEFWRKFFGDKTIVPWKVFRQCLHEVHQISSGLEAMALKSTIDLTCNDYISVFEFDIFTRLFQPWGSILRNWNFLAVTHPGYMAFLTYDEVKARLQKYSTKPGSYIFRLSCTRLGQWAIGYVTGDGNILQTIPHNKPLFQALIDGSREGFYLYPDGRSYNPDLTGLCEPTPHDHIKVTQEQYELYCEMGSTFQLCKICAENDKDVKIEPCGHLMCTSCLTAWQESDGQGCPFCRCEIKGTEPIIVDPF

| SMILES | pIC50 [1] | pIC50 [2] | (fold-selectivity) [2] | pIC50 ([1]; formate) | pIC50 ([2]; formate) |
| --- | --- | --- | --- | --- | --- |
| COCC1(O)CN(Cc2cc3c(c(C(F)(F)F)c2)CN(c2cccc(C4([C@H](F)c5nncn5C)COC4)c2)C3=O)C1 [Compound 186, (S)-2-(3-(3-(fluoro(4-methyl-4H-1,2,4-triazol-3-yl)methyl)oxetan-3-yl)phenyl)-6-((3-hydroxy-3-(methoxymethyl)azetidin-1-yl)methyl)-4-(trifluoromethyl)isoindolin-1-one] | 6.96 | 6.70 | 1.7x | – | – |
| Cn1cnc(CNc2cc(C3(Cc4nncn4C)CCC3)cc(N3Cc4c(cc(CNC5(C)CCC5)cc4C(F)(F)F)C3=O)n2)c1 [Compound 320, 2-(6-(((1-methyl-1H-imidazol-4-yl)methyl)amino)-4-(1-((4-methyl-4H-1,2,4-triazol-3-yl)methyl)cyclobutyl)pyridin-2-yl)-6-(((1-methylcyclobutyl)amino)methyl)-4-(trifluoromethyl)isoindolin-1-one] | 7.68 | 7.29 | (2.4x) | – | – |
| Cn1cnnc1[C@H](F)C1(c2cccc(N3Cc4c(cc(CNC5CCC5)cc4C(F)(F)F)C3=O)c2)COC1 [Compound 227, (R)-6-((Cyclobutylamino)methyl)-2-(3-(3-(fluoro(4-methyl-4H-1,2,4-triazol-3-yl)methyl)oxetan-3-yl)phenyl)-4-(trifluoromethyl)isoindolin-1-one formate] | 7.80 | 7.89 | – | – | – |
| Cn1cnnc1CC1(c2cccc(N3Cc4c(cc(CNC56CC(C5)C6)cc4C(F)(F)F)C3=O)c2)CC(F)(F)C1 [Compound 356, 6-((bicyclo[1.1.1]pentan-1-ylamino)methyl)-2-(3-(3,3-difluoro-1-((4-methyl-4H-1,2,4-triazol-3-yl)methyl)cyclobutyl)phenyl)-4-(trifluoromethyl)isoindolin-1-one] | 7.92 | 8.00 | (0.81x) | – | – |
| CCOc1cc(C2(Cc3nncn3C)CCC2)cc(N2Cc3c(cc(CNC4(C)CCC4)cc3C(F)(F)F)C2=O)n1 [Compound 285, 2-(6-ethoxy-4-(1-((4-methyl-4H-1,2,4-triazol-3-yl)methyl)cyclobutyl)pyridin-2-yl)-6-(((1-methylcyclobutyl)amino)methyl)-4-(trifluoromethyl)isoindolin-1-one] | 8.10 | 8.28 | (0.71x) | – | – |
| Cn1cnnc1[C@H](F)C1(c2cccc(N3Cc4c(cc(CNCC5CC5)cc4C(F)(F)F)C3=O)c2)CC(F)(F)C1 [Compound 449, (R)-6-(((cyclopropylmethyl)amino)methyl)-2-(3-(3,3-difluoro-1-(fluoro(4-methyl-4H-1,2,4-triazol-3-yl)methyl)cyclobutyl)phenyl)-4-(trifluoromethyl)isoindolin-1-one] | 7.70 | 7.68 | (1.1x) | – | – |
| Cn1cnnc1[C@H](F)C1(c2cccc(N3Cc4c(cc(CN5CC(C)(C)C5)cc4C(F)(F)F)C3=O)c2)COC1 [Compound 72, (R)-6-((3,3-dimethylazetidin-1-yl)methyl)-2-(3-(3-(fluoro(4-methyl-4H-1,2,4-triazol-3-yl)methyl)oxetan-3-yl)phenyl)-4-(trifluoromethyl)isoindolin-1-one] | 7.26 | 6.96 | 2.1x | – | – |
| Cn1cnnc1CC1(c2cccc(N3Cc4c(cc(CNCC5CCOC5)cc4C(F)(F)F)C3=O)c2)CC(F)(F)C1 (centres unmarked) [Compound 358, 2-(3-(3,3-difluoro-1-((4-methyl-4H-1,2,4-triazol-3-yl)methyl)cyclobutyl)phenyl)-6-((((tetrahydrofuran-3-yl)methyl)amino)methyl)-4-(trifluoromethyl)isoindolin-1-one formate] | 7.80 | 7.82 | – | – | – |
| Cn1cnnc1CC1(c2cc(NC3CCCC3)nc(N3Cc4c(cc(CNC5(C)CCC5)cc4C(F)(F)F)C3=O)c2)CCC1 [Compound 295, 2-(6-(cyclopentylamino)-4-(1-((4-methyl-4H-1,2,4-triazol-3-yl)methyl)cyclobutyl)pyridin-2-yl)-6-(((1-methylcyclobutyl)amino)methyl)-4-(trifluoromethyl)isoindolin-1-one] | 7.36 | 7.48 | (0.75x) | – | – |
| Cn1cnnc1[C@H](F)C1(c2cccc(N3Cc4c(cc(CN5CC(C)(CCl)C5)cc4C(F)(F)F)C3=O)c2)COC1 [Compound 103, (R)-6-((3-(chloromethyl)-3-methylazetidin-1-yl)methyl)-2-(3-(3-(fluoro(4-methyl-4H-1,2,4-triazol-3-yl)methyl)oxetan-3-yl)phenyl)-4-(trifluoromethyl)isoindolin-1-one] | 7.82 | 7.66 | 1.5x | – | – |
| Cn1cnnc1CC1(c2cccc(N3Cc4c(cc(CN)cc4C(F)(F)F)C3=O)c2)CC(F)(F)C1 [Compound 400, 6-(aminomethyl)-2-(3-(3,3-difluoro-1-((4-methyl-4H-1,2,4-triazol-3-yl)methyl)cyclobutyl)phenyl)-4-(trifluoromethyl)isoindolin-1-one] | 7.41 | 7.29 | (1.3x) | – | – |
| CN1CC2CC(C1)N2Cc1cc2c(c(C(F)(F)F)c1)CN(c1cccc(C3(Cc4nncn4C)CC(F)(F)C3)c1)C2=O [Compound 413, 2-(3-(3,3-difluoro-1-((4-methyl-4H-1,2,4-triazol-3-yl)methyl)cyclobutyl)phenyl)-6-((3-methyl-3,6-diazabicyclo[3.1.1]heptan-6-yl)methyl)-4-(trifluoromethyl)isoindolin-1-one formate] | – | – | – | 7.25 | 7.30 |
| CC(C)[C@H]1CN(C)CCN1C(C)c1cc2c(c(C(F)(F)F)c1)CN(c1cccc(C3([C@@H](F)c4nncn4C)CC(F)(F)C3)c1)C2=O (stereo partly drawn) [Compound 388, 2-(3-(3,3-difluoro-1-((R)-fluoro(4-methyl-4H-1,2,4-triazol-3-yl)methyl)cyclobutyl)phenyl)-6-(1-((S)-2-isopropyl-4-methylpiperazin-1-yl)ethyl)-4-(trifluoromethyl)isoindolin-1-one] | 7.34 | 7.20 | (1.4x) | – | – |
| Cc1cn(CC2(c3cccc(N4Cc5c(cc(CN6CCN(C)C[C@@H]6C(C)C)cc5C(F)(F)F)C4=O)c3)COC2)nn1 [Compound 257, (S)-6-((2-isopropyl-4-methylpiperazin-1-yl)methyl)-2-(3-(3-((4-methyl-1H-1,2,3-triazol-1-yl)methyl)oxetan-3-yl)phenyl)-4-(trifluoromethyl)isoindolin-1-one] | 4.89 | 4.70 | (1.6x) | – | – |
| Cn1cnnc1CC1(c2cc(C3CC3)nc(N3Cc4c(cc(CNC5(C)CCC5)cc4C(F)(F)F)C3=O)c2)CCC1 [Compound 284, 2-(6-cyclopropyl-4-(1-((4-methyl-4H-1,2,4-triazol-3-yl)methyl)cyclobutyl)pyridin-2-yl)-6-(((1-methylcyclobutyl)amino)methyl)-4-(trifluoromethyl)isoindolin-1-one] | 7.92 | 8.13 | (0.59x) | – | – |
| Cn1cnnc1[C@H](F)C1(c2cccc(N3Cc4c(cc(CN5CCC[C@H]5CO)cc4C(F)(F)F)C3=O)c2)COC1 [Compound 149, 2-(3-(3-((R)-fluoro(4-methyl-4H-1,2,4-triazol-3-yl)methyl)oxetan-3-yl)phenyl)-6-(((S)-2-(hydroxymethyl)pyrrolidin-1-yl)methyl)-4-(trifluoromethyl)isoindolin-1-one] | 6.42 | 6.41 | 1.0x | – | – |
| Cn1cnnc1[C@H](F)C1(c2cccc(N3Cc4c(cc(CN5CC[C@@H](F)C5)cc4C(F)(F)F)C3=O)c2)COC1 [Compound 80, 2-(3-(3-((R)-fluoro(4-methyl-4H-1,2,4-triazol-3-yl)methyl)oxetan-3-yl)phenyl)-6-(((R)-3-fluoropyrrolidin-1-yl)methyl)-4-(trifluoromethyl)isoindolin-1-one] | 6.96 | 6.54 | 2.6x | – | – |
| CC[C@H]1CC[C@@H](c2cc3c(c(C(F)(F)F)c2)CN(c2cccc(C4(Cc5nncn5C)CC(F)(F)C4)c2)C3=O)N1 [Compound 475, 2-(3-(3,3-difluoro-1-((4-methyl-4H-1,2,4-triazol-3-yl)methyl)cyclobutyl)phenyl)-6-((2S,5S)-5-ethylpyrrolidin-2-yl)-4-(trifluoromethyl)isoindolin-1-one] | 7.27 | 7.16 | (1.3x) | – | – |
| Cn1cnnc1CC1(c2cc(NCCN3CCOCC3)nc(N3Cc4c(cc(CNC5(C)CCC5)cc4C(F)(F)F)C3=O)c2)CCC1 [Compound 340, 2-(4-(1-((4-methyl-4H-1,2,4-triazol-3-yl)methyl)cyclobutyl)-6-((2-morpholinoethyl)amino)pyridin-2-yl)-6-(((1-methylcyclobutyl)amino)methyl)-4-(trifluoromethyl)isoindolin-1-one] | 6.36 | 6.49 | (0.74x) | – | – |
| CCOc1cc([C@H](C)Cc2nncn2C)cc(N2Cc3c(cc(CN4CCC5(CC5)C4)cc3C(F)(F)F)C2=O)n1 [Compound 56, (R)-6-((5-azaspiro[2.4]heptan-5-yl)methyl)-2-(6-ethoxy-4-(1-(4-methyl-4H-1,2,4-triazol-3-yl)propan-2-yl)pyridin-2-yl)-4-(trifluoromethyl)isoindolin-1-one formate] | 7.80 | 7.66 | – | – | – |
| CC(C)[C@H]1CN(C)CCN1Cc1cc2c(c(C(F)(F)F)c1)CN(c1cccc(C3(C(F)(F)c4nncn4C)CC3)c1)C2=O [Compound 221, (S)-2-(3-(1-(Difluoro(4-methyl-4H-1,2,4-triazol-3-yl)methyl)cyclopropyl)phenyl)-6-((2-isopropyl-4-methylpiperazin-1-yl)methyl)-4-(trifluoromethyl)isoindolin-1-one] | 7.82 | 7.82 | 1.0x | – | – |
